For series [1], the system named is recombinant TcOYE. In kind it is biochemical, Trypanosoma cruzi. As to conditions: pH 7.
Series [2] relates to TcOYE. Put plainly: Electron spin resonance spectrum of the reaction product of TcOYE (radical generation). In kind it is biochemical, Trypanosoma cruzi. To be noted: JEOL X-band spectrometer. The protocol:
Generation of radicals as a result of one-electron reduction is determined as follows. A hundred microliter of 5 mM tris-HCl buffer (pH 7.0) containing TcOYE and a substrate candidate is displaced with argon gas for 5 minutes to make an anaerobic environment. Then, 10 mM NADPH or NADH is added to the reaction mixture and allowed to react at 25° C. or 37° C. for 3 minutes under anaerobic condition. Part of the reaction mixture is analyzed with an electron spin resonance spectrometer (JEOL X-band spectrometer) to determine the generation of radicals. The measurement conditions and analytical method are described in the paper below. It is believed that the radicals produced react with oxygen to generate superoxide anion radicals (Moreno S. N. J. et al., J. Biol. Chem. 259: 6298-6305, 1984), which kill Trypanosoma cruzi.
The semiquinone radicals reacted with oxygen and produced superoxide anion radicals, which kill the protozoa (see FIG. 8).

Series [3] deals with TcOYE. Briefly: Inhibition of the PGH2-F2α reductase activity of TcOYE. Format: biochemical, Trypanosoma cruzi. As to conditions: FIG. 9. The protocol:
An example of the reaction is as follows. For reaction under aerobic condition, 1 μl of 500 μM [1-14C]PGH2 solution (2.04 Gbq/mmol; acetone, DMSO or dimethylether diethylene glycol solution) is added to 100 μl of 100 mM phosphate buffer (pH 7.0) containing a NADPH production system (100 μM NADP, 100 μM glucose-6-phosphate, 1 unit of glucose-6-phosphate dehydrogenase), TcOYE and an inhibitor, and is allowed to react at 37° C. for two minutes. For reaction under anaerobic condition, after bubbling the reaction mixture with argon gas for five minutes, 100 μM NADPH or NADH and 1 μl PGH2 solution are added, and the mixture is allowed to react in argon gas at 37° C. for two minutes.
250 μl of a stop solution (diethyl ether:methanol:2M citric acid (30:4:1 mixed solution)) at −20° C. and an excess amount of anhydrous sodium sulfate are added to stop the reaction, and the remaining substrate ([1-14C]PGH2) and the enzymatic reaction product ([1-14C]PGF2α) are extracted in ether at the same time. Part (about 50 μl) of the ether layer is applied onto a silica gel thin layer (Merck & Co.) in a low-temperature room, and thin-layer chromatography (eluent:diethyl ether:methanol:acetic acid (90:2:1 mixed solution)) is performed in a refrigerated room at −20° C. After development, autoradiography of the thin layer plate is performed using the image analyzer FL2000 (Fuji Photo Film), and the substrate to product ratio is calculated to determine enzymatic activity.
The enzymatic reaction described above is conducted in the presence or absence of an inhibitor and a decrease in the reaction rate due to the inhibitor is examined to determine whether or not the reduction is inhibited. Because it is very likely that Trypanosoma cruzi uses prostaglandin to sustain parasitism in host cells, an inhibitor of TcOYE may be used to inhibit Trypanosoma cruzi parasitism in host cells.
Naphtoquinone compounds and nitro heterocyclic compounds that are reduced by TcOYE inhibit the PGH2-F2α reducing activity of TcOYE in a dose-dependent manner.

Series [4] relates to crude extract of Trypanosoma cruzi (PG synthesizing system). Put plainly: Prostaglandin production from arachidonic acid by crude extract of Trypanosoma cruzi. In kind it is biochemical. The protocol: The vegetative form (epimastigote) of Trypanosoma cruzi YNIH strain in the insect body (obtained from the National Institute of Infectious Diseases (1-23-1, Toyama, Shinjuku-ku, Tokyo)) was incubated by the conventional method (Nozaki T. et al., J. Biol. Chem. 276: 6516-6523, 2001) using synthetic culture medium. The cultured protozoa was destroyed by hyposmotic treatment and allowed to react with arachidonic acid, and the PGs produced were extracted with an organic solvent and separated/purified by HPLC.

The test system of series [5] is CC1(C)CCC2=C(O1)c1ccccc1C(=O)C2=O. Briefly: purified protein, by the assay type. As to conditions: other: cofactor NADH (500 μM), argon-bubbled 0.1 M phosphate buffer pH 7.0, decrease in absorption at 340 nm.
Series [6] has as its system CC1=CC(=O)c2ccccc2C1=O. Put plainly: purified protein, by the assay type. As to conditions: other: cofactor NADPH (500 μM), argon-bubbled 0.1 M phosphate buffer pH 7.0, decrease in absorption at 340 nm.
Series [7] deals with CC1CS(=O)(=O)CCN1/N=C/c1ccc([N+](=O)[O-])o1. Put plainly: purified protein, by the assay type. To be noted: other: cofactor NADPH (500 μM), argon-bubbled 0.1 M phosphate buffer pH 7.0, decrease in absorption at 340 nm.
Series [8] relates to C[n+]1c2ccccc2nc2ccccc21. Put plainly: purified protein, by the assay type. To be noted: other: cofactor NADPH (500 μM), argon-bubbled 0.1 M phosphate buffer pH 7.0, decrease in absorption at 340 nm.
Series [9] has as its system O=[N+]([O-])c1cc[n+]([O-])c2ccccc12. Briefly: purified protein, by the assay type. As to conditions: other: cofactor NADPH (500 μM), argon-bubbled 0.1 M phosphate buffer pH 7.0, decrease in absorption at 340 nm.
For series [10], the system named is [H][C@]12C[C@]([H])(OO1)[C@H](C/C=C\CCCC(=O)O)[C@H]2/C=C/[C@@H](O)CCCCC. Briefly: purified protein, by the assay type. As to conditions: other: cofactor NADPH (500 μM), argon-bubbled 0.1 M phosphate buffer pH 7.0, decrease in absorption at 340 nm.

Consider “2β,6α-dimethyl-8α-(2-methyl-1-oxo-butoxy)-mevinic acid lactone [mevinolin]”, for which the “Reduction of the compound by TcOYE (substrate specificity)” value (“Reduction of the compound by TcOYE” below) in series [1] is “reduces”. Further, the “Type of reduction and radical production (ESR)” value in [2] is “underwent two-electron reduction and did not produce radicals”.

Regarding `O=[N+]([O-])c1cc[n+]([O-])c2ccccc12` [4-nitroquinoline-N-oxide], in series [1], the “Reduction of the compound by TcOYE” value is recorded as “reduces”. The “Type of reduction and radical production (ESR)” value in series [2] was “underwent two-electron reduction and did not produce radicals”. Further, the “Inhibition of the PGH2-F2α reducing activity of TcOYE” value in series [3] is reported as “weak”.

In the case of `CCCCC/C=C\C=C\C(=O)CCCCCCCC(=O)O` [9-oxo-10E,12Z-octadecadienoic acid], in [1], the “Reduction of the compound by TcOYE” value was “reduces”.

Take `CC/C=C\C[C@@H]1C(=O)C=C[C@@H]1CCCCCCCC(=O)O` [12-oxo-phytodienoic acid, 4-oxo-5β-(2Z-pentenyl)-2-cyclopentene-1β-octanoic acid]: the “Reduction of the compound by TcOYE” value in series [1] is recorded as “reduces”.

`CC(=O)Oc1ccccc1C(=O)O` [Aspirin]: the “Production of PGs (PGD2, PGE2, PGF2) by crude extract” value in series [4] (3 μM Aspirin) is “unaffected”.

For the compound `O=C(Cn1ccnc1[N+](=O)[O-])NCc1ccccc1` [benznidazole], the “Reduction of the compound by TcOYE” value in series [1] was “did not reduce”.

As to `Clc1ccc(COC(Cn2ccnc2)c2ccc(Cl)cc2Cl)cc1` (stereo not shown) [econazole], the “Reduction of the compound by TcOYE” value in [1] is “reduces”.

Turning to `OO` [hydrogen peroxide], in series [1], the “Reduction of the compound by TcOYE” value is “reduced”.

For the compound `COc1ccc2c(c1)c(CC(=O)O)c(C)n2C(=O)c1ccc(Cl)cc1` [indomethacin], in series [4] (42 μM indomethacin), the “Production of PGs (PGD2, PGE2, PGF2) by crude extract” value is “unaffected”.

Consider `CC1=CC(=O)c2ccccc2C1=O` [menadion], for which the “Reduction of the compound by TcOYE” value in series [1] is listed as “reduces”. Further, in series [2], the “Type of reduction and radical production (ESR)” value was “underwent one-electron reduction and produced semiquinone radicals”. Also, the “Inhibition of the PGH2-F2α reducing activity of TcOYE” value in series [3] is given as “weak”.

With `CC1CS(=O)(=O)CCN1/N=C/c1ccc([N+](=O)[O-])o1` (stereo not shown) [nifurtimox], the “Reduction of the compound by TcOYE” value in series [1] is “reduces”. Moreover, the “Type of reduction and radical production (ESR)” value in series [2] was “underwent two-electron reduction and did not produce radicals”. In series [3], the “Inhibition of the PGH2-F2α reducing activity of TcOYE” value is “inhibits the activity most strongly”.

For `C[n+]1c2ccccc2nc2ccccc21` [phenazine methosulfate, 5-methyl-phenaziummethylsulfate], the “Reduction of the compound by TcOYE” value in series [1] is “reduces”.

Consider `CC1(C)CCC2=C(O1)c1ccccc1C(=O)C2=O` [β-lapachone], for which, in [1], the “Reduction of the compound by TcOYE” value is on record as “reduces”. For the same compound, the “Type of reduction and radical production (ESR)” value in series [2] was “underwent one-electron reduction and produced semiquinone radicals”. The “Inhibition of the PGH2-F2α reducing activity of TcOYE” value in series [3] is “weak”.

In general, Km refers to the concentration of substrate that gives half-maximal velocity. Turning to “recombinant TcOYE (Trypanosoma cruzi old yellow enzyme, PGH2-F2α reductase, flavoprotein, SEQ ID NO: 2, 379 amino acids; expressed in E. coli BL21 from pGEX-4T-1 as fusion with glutathione transferase, recovered by thrombin treatment) (Trypanosoma cruzi)”, the Km is 0.17 µM in [5]; 0.82 µM in [6]; 19.0 µM in [7]; 10.4 µM in [8]; 9.5 µM in series [9]; 5.0 µM in series [10].

Source of the values: patent US20060275329A1 (priority 2002, published 2006).
